In paper PMC11865978, “Cellular Activity of CQWW Nullomer-Derived Peptides” (ACS Omega, 2025):
Non-standard residues stand in square brackets, D forms with d. Residues, ends and D or L forms follow the SMILES beside them. No end group written: not given here.

Legend:
GCGR-E13 = format: cell-based, human; details: 72 h
Experimental: (§1) Peptides were tested in an automated image-based high-content[42] cell painting[43],[44] assay that was originally developed to explore the mechanism of action of pharmacological and genetic perturbations within cells,[45] as well as a live cell imaging assay against six patient-derived glioblastoma cell lines (GCGR-E13, GCGR-E28, GCGR-E21, GCGR-E57, GCGR-E31, and GCGR-E34), covering classical, mesenchymal, and proneural subtypes, respectively (see Methods and Figure 1B–D), along with a healthy human fetal neuronal stem cell line (GCGR-NS9FB_B).
(§2) Cell survival was quantified by nuclei counts from the Hoechst dye-stained nuclei and IC50 values calculated along with 95% confidence intervals (Figure 1B; see Table S2 for full details). […]
(§3) High Content Phenotypic Screening assays
(§4) Cell lines (glioma stem cell lines and normal foetal neural stem cells) were seeded on laminin (10 µg/mL) coated 384-well plates (Greiner Bio-One, 781091) at 1,000 cells/well and incubated overnight at 37 °C and 5% CO2. Aqueous peptide solutions (10 mM) were further diluted to 1 mM in water containing 10 % glycerol and 0.01 % TX-100. […]
(§5) The cells were placed in an IncuCyte live cell imager (Essen BioScience) and imaged every three hours for 72 hours. Prior to fixation, the plates were removed from the IncuCyte and stained with Mitrotracker DeepRed (Invitrogen, M22426, 300 nM, 30 minutes). Cells were then fixed using 4 % formaldehyde and permeabilized with 0.1 % TX-100 in PBS. The cells were stained with ‘Cell Painting’ […]
(§6) assay reagents1: Hoechst 33342 (10 mg/mL stock, Molecular Probes, 1:5000), SYTO14 […]
(§7) BSA/PBS. The plates were imaged using an ImageXpress high content microscope (Molecular Devices). Cells were imaged with a 20× objective, covering 6 fields-of-view in each well. The data was then analyzed using a custom CellProfiler software pipeline using the University of Edinburgh high performance computing cluster. Dose response plots were calculated using HC StratomineR (corelifeanalytics.com). Nuclei count data was analyzed separately to generate cell survival metrics (normalized to aqueous glycerol/TX -100 control). […]

GCGR-E21 = format: cell-based, human; details: 72 h
Experimental: as §1, §2, §3, §4, §5, §6, §7

GCGR-E34 = format: cell-based, human; details: 72 h
Experimental: as §1, §2, §3, §4, §5, §6, §7

GCGR-E28 = format: cell-based, human; details: 72 h
Experimental: as §1, §2, §3
(§8) Cell lines (glioma stem cell lines and normal foetal neural stem cells) were seeded on laminin (10 µg/mL) coated 384-well plates (Greiner Bio-One, 781091) at 1,000 cells/well and incubated overnight at 37 °C and 5% CO2. Aqueous peptide solutions (10 mM) were further diluted to 1 mM in water containing 10 % glycerol and 0.01 % TX-100. Cells were dosed using a D300 digital dispenser (Tecan) by 10-point dose response (30 µM – 1 µM) in triplicate and with aqueous glycerol/TX-100 as control. The cells were placed in an IncuCyte live cell imager (Essen BioScience) and imaged every three hours for 72 hours. Prior to fixation, the plates were removed from the IncuCyte and stained with Mitrotracker DeepRed (Invitrogen, M22426, 300 nM, 30 minutes). Cells were then fixed using 4 % formaldehyde and permeabilized with 0.1 % TX-100 in PBS. The cells were stained with ‘Cell Painting’ […]
as §6, §7

GCGR-E31 = format: cell-based, human; details: 72 h
Experimental: as §1, §2, §3, §8, §6, §7

GCGR-E57 = format: cell-based, human; details: 72 h
Experimental: as §1, §2, §3, §8, §6, §7

GCGR-NS9FB_B = format: cell-based, human; details: 72 h
Experimental: as §1, §2, §3, §8, §6, §7

GSK-3 = assay: Reverse phase protein array (RPPA); format: cell-based, human; details: peptides at 3 μM, 3 h and 24 h (peptide 7: 24 h only), seven cell lines; fold difference vs water control
From the text: The phenotypic effect of the peptides was visualized by live cell imaging (Figure 1C, IncuCyte live cell imager) and also quantified via image analysis of cells labeled with the cell painting reagents (see Supporting Information) followed by image analysis using Cell Profiler (cellprofiler.org). Multiparametric outputs from Cell Profiler were processed using Phenonaut[46] [v 2.0.3] (see Jupyter notebook ‘Phenonaut_processing_of_nullomer_data.ipynb’ in the Aminonaut repository for methods and code used). […] Peptides 2, 5, and 7 were deemed to have the most merit for mode of action determination using reverse phase protein arrays (RPPAs) (see Supporting Information for methods). […]
growth and stemness was further supported by the addition of laminin extracellular matrix (Cultrex 3446-005-01, 4-10 mg/mL) to the growth media and to create pre-coated flasks/384w plates. Cells were cultured in T75 cm2 flasks and passaged as follows: Glioma stem cells generally grow slowly (~60hrs doubling time, excepting GCGR-E57 cells ~24hrs) and lag phase was exacerbated by sparse seeding. Cell confluence is generally ~80 -90% prior to passaging, whereby the culture media was aspirated, the cells washed (PBS) and Accutase solution (Sigma A6964, 1 mL) was added to detach the cells, which were then incubated at 37 °C for <5 minutes. Cells were resuspended in media and centrifuged for 3 minutes at 300 × g. Resuspended cells were typically split 1:5, 1:8 (GCGR-E57 cells) and 1:2, 1:4 for the remainder of cell lines, depending on requirements . Cells were passaged every 4-7 days to maintain health and growth and discarded after 3 months, whereupon a fresh batch of cells […]
Reverse Phase Protein Array (RPPA)
Culture media was aspirated and cells washed with wash media. Accutase solution (1mL) was used to detach the cells which were then incubated at 37 °C for 5 minutes. 10 mL of wash media was added, and the cells were pipetted into a 15 mL conical tube, after which they were centrifuged for 3 minutes at 300× g to form a pellet. Supernatant was aspirated, and cells resuspended in 5 mL of wash media. A 10 μL sample of the cell suspension was pipetted onto the reading surface of a DeNovix CellDrop automated cell counter and the reading was used to dilute the suspension in complete media to 250,000 cells/mL. 2 mL of this suspension was added to each well of 6-well plates to seed plates at 500,000 cells per well. 2 plates of each cell type (GCGR-E13, GCGR-E21, GCGR-E28, GCGR-E31, GCGR-E34, GCGR-E57 and GCGR-NS9FB_B) were seeded, one each for two nullomer dosage […]
timepoints (3 h and 24 h). The cells were incubated in the 6-well plates overnight, and dosing was carried out in the following morning. […]

NCI-60 panel = details: 60 cell lines from human cancers of nine organs; cited from earlier work
From the text: (§9) Closely related to nullomer peptides, rarely observed amino acid stretches have also been studied by Capone et al., who assert that the minimal sufficient antigenic determinants of a protein could be encoded in just five rarely seen amino acids.[20] Complementing this, Patel et al. noted that these rare sequences could be used to enhance antigen-specific immune responses when dosed alongside adjuvant vaccines.[21] It was also noted by Koulouras et al. that human viruses rarely share human nullomers, facilitating host mimicry and immune evasion,[22] an interesting example of this being highligh ...

[1] = system: normal cell lines and cancer cell lines; details: cited from earlier work
From the text: as §9

[2] = system: triple-negative breast cancer mouse model; details: cited from earlier work
From the text: as §9

Row | Molecule | IC50 (GCGR-E13) [µM] | IC50 (GCGR-E21) [µM] | IC50 (GCGR-E34) [µM] | IC50 (GCGR-E28) [µM] | IC50 (GCGR-E31) [µM] | IC50 (GCGR-E57) [µM] | IC50 (GCGR-NS9FB_B) [µM] | GSK-3 regulation in RPPA (GSK-3) | lethal effect on NCI-60 panel (NCI-60 panel) | mitochondrial impairment [1] | gene expression by transcriptomics in triple-negative breast cancer mouse model [2]
1 | RRRRRCQWA-NH2 [Peptide 9] | > 30 | > 30 | 15.8 | > 30 | > 30 | > 30 | > 30 | – | – | – | –
2 | RRRRRWWQC-NH2 [Peptide 4] | 13.1 | 12.8 | 8.6 | 10.9 | 11.8 | 9 | 13.8 | – | – | – | –
3 | RRRRRCQAW-NH2 [Peptide 8] | 100 | 75 | 100 | 100 | 238 | 100 | 100 | – | – | – | –
4 | RRRRRCAWW-NH2 [Peptide 7] | 10.6 | 11.2 | 6 | 9.7 | 12.1 | 6.3 | 11.9 | downregulation of GSK-3β | – | – | –
5 | RRRRRFQWW-NH2 [Peptide 13] | 52 | 81.3 | > 100 | 29.6 | 101 | 55.7 | – | – | – | – | –
6 | NWMWC [pentamer peptide nullomer of Alileche et al] | – | – | – | – | – | – | – | – | lethal to a high fraction of oncogenic cell lines | caused mitochondrial impairment in both normal cell lines and cancer cell lines | –
7 | RRRRRHQWW-NH2 [Peptide 14] | 52 | 132 | > 100 | 58 | 123 | 119 | – | – | – | – | –
8 | N=C(N)NCCC[C@H](NC(=O)[C@H](CCCNC(=N)N)NC(=O)[C@H](CCCNC(=N)N)NC(=O)[C@@H](N)CCCNC(=N)N)C(=O)N[C@@H](CCCNC(=N)N)C(=O)N[C@H](CS)C(=O)N[C@H](CCC(N)=O)C(=O)N[C@H](Cc1c[nH]c2ccccc12)C(=O)N[C@H](Cc1c[nH]c2ccccc12)C(N)=O [Peptide 3] (H-RRRRR[dC][dQ][dW][dW]-NH2) | 6.9 | 7.5 | 5.3 | 8.4 | 8.7 | 5.4 | 9.7 | downregulation of GSK-3 | – | – | –
9 | RRRRRQWW-NH2 [Peptide 11] | 110 | 158 | 114 | 72.6 | 74.3 | 99.5 | – | – | – | – | –
10 | RRRRRMQWW-NH2 [Peptide 12] | 117 | 122 | > 100 | 100 | 59.7 | > 100 | – | – | – | – | –
11 | RRRRR-NH2 [Peptide 15, reference compound] | – | – | 15.8 | – | – | – | – | – | – | – | –
12 | WCMNW [permutation of pentamer nullomer NWMWC, Alileche et al] | – | – | – | – | – | – | – | – | lethal to a high fraction of oncogenic cell lines | caused mitochondrial impairment in both normal cell lines and cancer cell lines | downregulation of key genes involved in the mitochondrial TCA cycle
13 | N=C(N)NCCC[C@H](NC(=O)[C@H](CCCNC(=N)N)NC(=O)[C@H](CCCNC(=N)N)NC(=O)[C@@H](N)CCCNC(=N)N)C(=O)N[C@@H](CCCNC(=N)N)C(=O)N[C@H](Cc1c[nH]c2ccccc12)C(=O)N[C@H](Cc1c[nH]c2ccccc12)C(=O)N[C@H](CCC(N)=O)C(=O)N[C@H](CS)C(N)=O [Peptide 5] (H-RRRRR[dW][dW][dQ][dC]-NH2) | 13.6 | 16.3 | 17.6 | 13.2 | 15.7 | 9.9 | 15.9 | downregulation of GSK-3β | – | – | –
14 | RRRRRAQWW-NH2 [Peptide 6] | 151 | 279 | – | 86 | – | – | – | – | – | – | –
15 | RRRRRCQW-NH2 [Peptide 10] | > 100 | > 100 | 154 | 168 | > 100 | 108 | – | – | – | – | –
